In patent US11976057B2, “MrgX2 antagonists” (GlaxoSmithKline Intellectual Property Development Limited, priority 2020, dated 2024) one finds IC50 data, which are given here for 22 molecules.

The target of this experiment is T1, human MRGPRX2 (Homo sapiens, UniProt Q96LB1).
T1 sequence (Q96LB1 1-330): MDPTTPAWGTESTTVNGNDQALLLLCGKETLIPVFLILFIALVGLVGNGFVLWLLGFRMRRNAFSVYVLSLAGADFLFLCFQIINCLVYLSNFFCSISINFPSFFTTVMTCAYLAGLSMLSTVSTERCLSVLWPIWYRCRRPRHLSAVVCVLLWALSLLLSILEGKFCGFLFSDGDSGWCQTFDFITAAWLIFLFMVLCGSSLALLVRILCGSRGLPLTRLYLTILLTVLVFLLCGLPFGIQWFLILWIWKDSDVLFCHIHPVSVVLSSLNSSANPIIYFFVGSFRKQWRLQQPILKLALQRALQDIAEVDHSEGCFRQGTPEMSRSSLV
As to the kind of experiment: Ca2+ mobilization assay (FLIPR TETRA): inhibition of Cortistatin-14 mediated MRGPRX2 activation. Background: Calcium flux is commonly read through the fluorescence of an indicator in the cells.

SMILES strings stand for the structures.

One may read the IC50 as the concentration needed to halve the response being measured. Molecule `C[C@@H](C(=O)Nc1ccc(Oc2ccc(F)cc2F)cn1)N1CCC(F)(F)C(c2ccnc(CN3CC(F)(F)C3)c2)C1` (mixture of isomers) [Example 270, (2S)-2-(3-(2-((3,3-difluoroazetidin-1-yl)methyl)pyridin-4-yl)-4,4-difluoropiperidin-1-yl)-N-(5-(2,4-difluorophenoxy)pyridin-2-yl)propanamide] displayed a half-inhibitory concentration (IC50) of 10 to 100 nM.

As to `C[C@@H](C(=O)Nc1ccc(Oc2ccc(F)cc2CO)cn1)N1CCC(F)(F)[C@@H](c2ccc(=O)[nH]c2)C1` [Example 271, (S)-2-((S)-4,4-difluoro-3-(6-oxo-1,6-dihydropyridin-3-yl)piperidin-1-yl)-N-(5-(4-fluoro-2-(hydroxymethyl)phenoxy)pyridin-2-yl)propanamide], the IC50 lay in the range of 10 to 100 nM.

`CC(C(=O)Nc1cc(F)c(F)cn1)N1CCC(F)(F)[C@@H](c2ccc(=O)[nH]c2)C1` (stereo partly drawn) [Example 39, 2-((S)-4,4-difluoro-3-(6-oxo-1,6-dihydropyridin-3-yl)piperidin-1-yl)-N-(4,5-difluoropyridin-2-yl)propanamide] registered an IC50 of 100 to 3160 nM.

For the molecule `C[C@@H](C(=O)Nc1ccc(Oc2ccc(F)cc2)cn1)N1CCC(F)(F)[C@@H](c2c[nH]c(=O)c(CO)c2)C1` [Example 156], the IC50 was ≤ 10 nM.

Regarding `C[C@@H](C(=O)Nc1ccc(Oc2c(F)cc(F)cc2F)cn1)N1CCC(F)(F)[C@@H](c2ccc(=O)[nH]c2)C1` [Example 96, (S)-2-((S)-4,4-difluoro-3-(6-oxo-1,6-dihydropyridin-3-yl)piperidin-1-yl)-N-(5-(2,4,6-trifluorophenoxy)pyridin-2-yl)propanamide], the half-maximal inhibitory concentration (IC50) was ≤ 10 nM.

Regarding `C[C@@H](C(=O)Nc1cnc(Oc2c(F)cc(F)cc2F)cn1)N1CCC(F)(F)[C@@H](c2cc[n+]([O-])cc2)C1` [Example 119, 4-((S)-4,4-difluoro-1-((S)-1-oxo-1-((5-(2,4,6-trifluorophenoxy)pyrazin-2-yl)amino)propan-2-yl)piperidin-3-yl)pyridine 1-oxide], the IC50 was ≤ 10 nM.

Turning to `C[C@@H](C(=O)Nc1ccc(OCC2CC2)cn1)N1CCC(F)(F)[C@@H](c2c[nH]c(=O)cn2)C1` [Example 133, (S)—N-(5-(cyclopropylmethoxy)pyridin-2-yl)-2-((R)-4,4-difluoro-3-(5-oxo-4,5-dihydropyrazin-2-yl)piperidin-1-yl)propanamide], the half-inhibitory concentration (IC50) was ≤ 10 nM.

For `C[C@@H](C(=O)Nc1ccc(Oc2ccc(F)cc2)cn1)N1CCC(F)(F)[C@@H](c2c[nH]c(=O)c([C@H](N)C(F)(F)F)c2)C1` (single isomer, unassigned) [Example 233], the half-maximal inhibitory concentration (IC50) was ≤ 10 nM.

On to `CC(C(=O)Nc1ccc(F)cn1)N1CCC(F)(F)C(c2c[nH]c(=O)c(C#N)c2)C1` (stereo not shown) [Example 249, 2-(3-(5-cyano-6-oxo-1,6-dihydropyridin-3-yl)-4,4-difluoropiperidin-1-yl)-N-(5-fluoropyridin-2-yl)propanamide], for which the IC50 was in the range of 100 to 3160 nM.

On to `C[C@@H](C(=O)Nc1ccc(OCC2CC2)nn1)N1CCC(F)(F)[C@@H](c2c[nH]c(=O)cn2)C1` [Example 134, (S)-N-(6-(cyclopropylmethoxy)pyridazin-3-yl)-2-((R)-4,4-difluoro-3-(5-oxo-4,5-dihydropyrazin-2-yl)piperidin-1-yl)propanamide], for which the IC50 is 10 to 100 nM.

As to `C[C@@H](C(=O)Nc1ccc(F)cn1)N1CCC(F)(F)[C@@H](c2c[nH]c(=O)c(N)c2)C1` [Example 142, (S)-2-((S)-3-(5-amino-6-oxo-1,6-dihydropyridin-3-yl)-4,4-difluoropiperidin-1-yl)-N-(5-fluoropyridin-2-yl)propanamide], the IC50 fell in the range of 100 to 3160 nM.

`C[C@@H](C(=O)Nc1ccc(Cl)cn1)N1CCC(F)(F)[C@@H](c2ccc(=O)[nH]n2)C1` [Example 149, (S)-N-(5-chloropyridin-2-yl)-2-((R)-4,4-difluoro-3-(6-oxo-1,6-dihydropyridazin-3-yl)piperidin-1-yl)propanamide] yielded a half-inhibitory concentration (IC50) of 100 to 3160 nM.

In turn, `CC(C(=O)Nc1ccc(F)cn1)N1CCC(F)(F)C(c2ccc(=O)n(Cc3ncco3)c2)C1` (stereo not shown) [Example 198, 2-(4,4-difluoro-3-(1-(oxazol-2-ylmethyl)-6-oxo-1,6-dihydropyridin-3-yl)piperidin-1-yl)-N-(5-fluoropyridin-2-yl)propanamide] returned an IC50 of 10 to 100 nM.

As for `CC(C(=O)Nc1ccc2cc(C3CC3)cnc2n1)N1CCC(F)(F)[C@@H](c2ccc(=O)[nH]c2)C1` (stereo partly drawn) [Example 77, N-(6-cyclopropyl-1,8-naphthyridin-2-yl)-2-((S)-4,4-difluoro-3-(6-oxo-1,6-dihydropyridin-3-yl)piperidin-1-yl)propanamide], the concentration for half-maximal inhibition (IC50) was in the range of 100 to 3160 nM.

In turn, `C[C@@H](C(=O)Nc1ccc(F)cn1)N1CCC(F)(F)C(c2cc(CO)c(=O)n(CC(F)(F)F)c2)C1` (stereo partly drawn) [Example 199, (2S)-2-(4,4-difluoro-3-(5-(hydroxymethyl)-6-oxo-1-(2,2,2-trifluoroethyl)-1,6-dihydropyridin-3-yl)piperidin-1-yl)-N-(5-fluoropyridin-2-yl)propanamide] came in with an IC50 of 100 to 3160 nM.

Molecule `C[C@@H](C(=O)Nc1ccc2cc(C3CC3)ccc2n1)N1CCC(F)(F)[C@@H](c2ccc(=O)[nH]c2)C1` [Example 25, (S)-N-(6-cyclopropylquino-lin-2-yl)-2-((S)-4,4-difluoro-3-(6-oxo-1,6-dihydropyridin-3-yl)piperidin-1-yl)propanamide] came in with an IC50 of 100 to 3160 nM.

The molecule `C[C@@H](C(=O)Nc1ccc(OCC2CC2)nn1)N1CCC(F)(F)[C@@H](c2c[nH]c(=O)c(N)c2)C1` [Example 140, (S)-2-((S)-3-(5-amino-6-oxo-1,6-dihydropyridin-3-yl)-4,4-difluoropiperidin-1-yl)-N-(6-(cyclopropylmethoxy)pyridazin-3-yl)propanamide] gave a 50% inhibitory concentration (IC50) of 10 to 100 nM.

Turning to `C[C@@H](C(=O)Nc1ccc(Cc2ccccc2)cn1)N1CCC(F)(F)[C@@H](c2ccc(=O)[nH]c2)C1` [Example 7, (S)-N-(5-benzylpyridin-2-yl)-2-((S)-4,4-difluoro-3-(6-oxo-1,6-dihydropyridin-3-yl)piperidin-1-yl)propanamide], the IC50 was ≤ 10 nM.

On to `C[C@@H](C(=O)Nc1ccc(OCC2CC2)nn1)N1CCC(F)(F)C(c2c[nH]c(=O)c(CO)c2)C1` (stereo partly drawn) [Example 154, (S)-N-(6-(cyclopropylmethoxy)pyridazin-3-yl)-2-(4,4-difluoro-3-(5-(hydroxymethyl)-6-oxo-1,6-dihydropyridin-3-yl)piperidin-1-yl)propanamide], for which the concentration for half-maximal inhibition (IC50) is 100 to 3160 nM.

On to `C[C@@H](C(=O)Nc1ccc(Oc2c(F)cc(F)cc2F)cn1)N1CCC(F)(F)[C@@H](c2cc[n+]([O-])cc2)C1` [Example 123, 4-((S)-4,4-difluoro-1-((S)-1-oxo-1-((5-(2,4,6-trifluorophenoxy)pyridin-2-yl)amino)propan-2-yl)piperidin-3-yl)pyridine 1-oxide], for which the IC50 was ≤ 10 nM.

For `C[C@@H](C(=O)Nc1ccc(Oc2ccccc2)cn1)N1CCC(F)(F)[C@@H](c2ccc(=O)[nH]c2)C1` [Example 6, (S)-2-((S)-4,4-difluoro-3-(6-oxo-1,6-dihydropyridin-3-yl)piperidin-1-yl)-N-(5-phenoxypyridin-2-yl)propanamide], the IC50 was ≤ 10 nM.

As to `C[C@@H](C(=O)Nc1cc(F)c(OCC2CC2)cn1)N1CCC(F)(F)[C@@H](c2ccc(=O)[nH]c2)C1` [Example 76, (S)-N-(5-(cyclopropyl-methoxy)-4-fluoropyridin-2-yl)-2-((S)-4,4-difluoro-3-(6-oxo-1,6-dihydropyridin-3-yl)piperidin-1-yl)propanamide], the half-inhibitory concentration (IC50) is 10 to 100 nM.
